{
  "source": "BindingDB's records for doi:10.3109/14756366.2012.680062",
  "about": "(Shandong University, 2013)",
  "data": [
    {"target": "T1, Aminopeptidase N (Sus scrofa, UniProt P15145)", "T1 sequence (P15145 whole entry)": "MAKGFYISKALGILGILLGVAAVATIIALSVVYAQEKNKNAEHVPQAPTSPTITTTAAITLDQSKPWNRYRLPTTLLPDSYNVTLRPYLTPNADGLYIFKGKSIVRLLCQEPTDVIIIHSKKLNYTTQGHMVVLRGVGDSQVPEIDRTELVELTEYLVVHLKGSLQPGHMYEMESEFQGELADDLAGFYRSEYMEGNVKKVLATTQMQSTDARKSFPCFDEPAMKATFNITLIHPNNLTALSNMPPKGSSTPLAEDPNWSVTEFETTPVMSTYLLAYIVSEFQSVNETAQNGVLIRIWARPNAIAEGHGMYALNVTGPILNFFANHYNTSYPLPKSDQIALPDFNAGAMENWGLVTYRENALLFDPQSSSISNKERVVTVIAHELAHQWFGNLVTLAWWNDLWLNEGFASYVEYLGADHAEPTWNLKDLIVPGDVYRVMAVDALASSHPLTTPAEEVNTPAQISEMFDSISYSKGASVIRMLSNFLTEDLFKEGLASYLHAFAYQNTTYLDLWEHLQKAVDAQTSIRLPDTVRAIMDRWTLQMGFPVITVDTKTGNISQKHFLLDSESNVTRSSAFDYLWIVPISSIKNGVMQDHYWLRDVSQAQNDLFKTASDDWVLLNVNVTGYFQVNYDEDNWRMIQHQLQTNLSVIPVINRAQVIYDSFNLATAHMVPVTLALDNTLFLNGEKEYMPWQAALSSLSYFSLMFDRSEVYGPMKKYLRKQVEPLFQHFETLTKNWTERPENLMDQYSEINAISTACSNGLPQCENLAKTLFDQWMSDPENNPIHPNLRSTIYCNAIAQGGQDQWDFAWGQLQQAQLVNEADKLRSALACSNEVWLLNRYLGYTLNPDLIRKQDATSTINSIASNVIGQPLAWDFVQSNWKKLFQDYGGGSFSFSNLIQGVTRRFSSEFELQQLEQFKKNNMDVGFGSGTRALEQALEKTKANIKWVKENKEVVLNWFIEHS", "test": "In Vitro APN Inhibition Assay", "settings": "pH 7.2", "units": {"IC50": "µM"}, "values": [
      {"compound": "CC(C)[C@H](NC(=O)[C@@H](O)CN)C(=O)N[C@@H](Cc1ccccc1)C(=O)O", "note": "[L-isoserine-L-valine-L-phenylalanine (16d)]", "IC50": 30.2},
      {"compound": "CC(C)C[C@H](NC(=O)[C@@H](NC(=O)[C@@H](O)CN)c1ccccc1)C(=O)O", "note": "[L-isoserine-L-phenylglycine-L-leucyl (16k)]", "IC50": 11.6},
      {"compound": "NC[C@H](O)C(=O)N[C@H](C(=O)N[C@@H](Cc1ccccc1)C(=O)O)c1ccccc1", "note": "[L-isoserine-L-phenylglycine-L-phenylalanine (16g)]", "IC50": 5.8},
      {"compound": "CC(C)[C@H](NC(=O)[C@H](Cc1ccc(O)cc1)NC(=O)[C@@H](O)CN)C(=O)O", "note": "[L-isoserine-L-tyrosinase-L-valine (16e)]", "IC50": 11.5},
      {"compound": "CC(C)C[C@H](NC(=O)[C@@H](NC(=O)[C@@H](O)CN)C(C)C)C(=O)O", "note": "[L-isoserine-L-valine-L-leucyl (16h)]", "IC50": 6.5},
      {"compound": "CC(C)[C@H](NC(=O)[C@@H](NC(=O)[C@@H](O)CN)c1ccccc1)C(=O)O", "note": "[L-isoserine-L-phenylglycine-L-valine (16c)]", "IC50": 51.5},
      {"compound": "CCC(C)[C@H](NC(=O)[C@H](Cc1ccccc1)NC(=O)[C@@H](O)CN)C(=O)O", "note": "(stereo partly drawn) [2-[2-(3-amino-2-hydroxypropanamido)-3-phenylpropanamido]-3-methylpentanoic acid (16a)]", "IC50": 30.4},
      {"compound": "NC[C@H](O)C(=O)N[C@@H](Cc1ccccc1)C(=O)N[C@@H](Cc1ccccc1)C(=O)O", "note": "[L-isoserine-L-phenylalanine-L-phenylalanine (16n)]", "IC50": 6.5},
      {"compound": "CC(C)C[C@H](NC(=O)[C@@H](O)CN)C(=O)N[C@H](C(=O)O)C(C)C", "note": "[L-isoserine-L-leucyl-L-valine (16i)]", "IC50": 5.16},
      {"compound": "CC(C)C[C@H](NC(=O)[C@@H](O)CN)C(=O)N[C@@H](Cc1ccc(O)cc1)C(=O)O", "note": "[L-isoserine-L-eucyl-L-tyrosinase (16m)]", "IC50": 17.5},
      {"compound": "CC(C)[C@H](NC(=O)[C@@H](NC(=O)[C@@H](O)CN)C(C)C)C(=O)O", "note": "[L-isoserine-L-valine-L-valine (16f)]", "IC50": 13.6},
      {"compound": "CC(C)C[C@H](NC(=O)[C@H](Cc1ccc(O)cc1)NC(=O)[C@@H](O)CN)C(=O)O", "note": "[L-isoserine-L-tyrosinase-L-leucyl (16l)]", "IC50": 2.51},
      {"compound": "CC(C)[C@H](NC(=O)[C@H](Cc1ccccc1)NC(=O)[C@@H](O)CN)C(=O)O", "note": "[L-isoserine-L-phenylalanine-L-valine (16b)]", "IC50": 94}
    ]}
  ]
}
